Measurements: ChEMBL document CHEMBL1133830, “Potent, low molecular weight thrombin receptor antagonists” (Bioorg Med Chem Lett, 2001)

Columns and labels:
[1] = molecular target: T1, Proteinase-activated receptor 1 (Homo sapiens, UniProt P25116); assay: Inhibitory concentration against potent thrombin receptor-1 (PAR-1) on human platelets; Inactive
T1 sequence (P25116 whole entry): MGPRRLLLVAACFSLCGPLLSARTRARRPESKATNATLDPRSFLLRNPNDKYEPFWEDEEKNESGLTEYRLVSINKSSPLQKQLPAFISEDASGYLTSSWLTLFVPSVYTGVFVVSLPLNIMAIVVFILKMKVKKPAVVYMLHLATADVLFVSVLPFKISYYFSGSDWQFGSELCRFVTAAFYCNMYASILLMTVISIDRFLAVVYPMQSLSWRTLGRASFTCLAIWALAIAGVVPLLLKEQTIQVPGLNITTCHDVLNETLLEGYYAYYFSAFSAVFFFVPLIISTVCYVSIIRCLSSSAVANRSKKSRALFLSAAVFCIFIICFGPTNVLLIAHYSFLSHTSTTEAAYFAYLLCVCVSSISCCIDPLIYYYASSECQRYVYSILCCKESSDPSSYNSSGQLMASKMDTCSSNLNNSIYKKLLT

[2] = molecular target: T1, Proteinase-activated receptor 1; assay: Inhibitory concentration against potent thrombin receptor-1 (PAR-1) on human platelets
Homo sapiens [3] = species: Homo sapiens; assay: Inhibition of human platelet aggregation induced by high affinity thrombin receptor agonist peptide( ha-TRAP); type: functional
Homo sapiens [4] = species: Homo sapiens; assay: Inhibition of human platelet aggregation induced by thrombin; type: functional

Compound	IC50 [1]	IC50 [2] [nM]	other results
O=C(Cn1c(=O)n(Cc2ccccc2)c2ccccc21)c1ccc(Br)cc1	Not Active		
Cn1c(=O)n(CC(=O)c2cc(C(C)(C)C)c(O)c(C(C)(C)C)c2)c2ccccc21	Not Active		
CCC(=O)c1cc(C(C)(C)C)c(O)c(C(C)(C)C)c1	Not Active		
O=C(Cn1c(=O)n(Cc2ccccc2)c2ccccc21)c1ccc(Cl)cc1Cl	Not Active		
CC(C)(C)c1cc(C(=O)Cn2c(=N)n(Cc3ccc(Cl)c(Cl)c3)c3ccccc32)cc(C(C)(C)C)c1O		1320	
CC(C)(C)c1ccc(Cn2c(=N)n(CC(=O)c3cc(C(C)(C)C)c(O)c(C(C)(C)C)c3)c3ccccc32)cc1		734	
Cc1ccc(C(=O)Cn2c(=O)n(Cc3ccccc3)c3ccccc32)cc1	Not Active		
CC(C)(C)c1cc(C(=O)Cn2c(=N)n(CCN3CCCCC3)c3ccccc32)cc(C(C)(C)C)c1O		2870	
CC(C)(C)c1cc(C(=O)Cn2c(N)nc3ccccc32)cc(C(C)(C)C)c1O		1500	
CCCCn1c(=N)n(CC(=O)c2cc(C(C)(C)C)c(O)c(C(C)(C)C)c2)c2ccccc21		359	IC50 (Homo sapiens [3]): 825 nM; IC50 (Homo sapiens [4]): 10000 nM
CCCCCCCn1c(=N)n(CC(=O)c2cc(C(C)(C)C)c(O)c(C(C)(C)C)c2)c2ccccc21		964	
Cc1ccc(Cn2c(=N)n(CC(=O)c3cc(C(C)(C)C)c(O)c(C(C)(C)C)c3)c3ccccc32)cc1		33	IC50 (Homo sapiens [3]): 575 nM; IC50 (Homo sapiens [4]): 1500 nM
Cn1c(=N)n(CC(=O)c2cc(C(C)(C)C)c(O)c(C(C)(C)C)c2)c2ccccc21		900	
Cc1cc(C(=O)Cn2c(=O)n(Cc3ccccc3)c3ccccc32)ccc1Cl	Not Active		
CC(C)(C)c1cc(C(=O)Cn2c(=N)n(Cc3ccccc3)c3ccccc32)cc(C(C)(C)C)c1O		65	IC50 (Homo sapiens [3]): 265 nM; IC50 (Homo sapiens [4]): 600 nM
COc1ccc(OC)c(C(=O)Cn2c(=O)n(Cc3ccccc3)c3ccccc32)c1	Not Active		
O=C(Cn1c(=O)n(Cc2ccccc2)c2ccccc21)c1ccc(F)cc1	Not Active		
Cc1ccc(C(=O)Cn2c(=O)n(Cc3ccccc3)c3ccccc32)c(C)c1	Not Active		
CC(C)(C)c1cc(C(=O)Cn2c(=N)n(CCN3CCOCC3)c3ccccc32)cc(C(C)(C)C)c1O		98	IC50 (Homo sapiens [3]): 2000 nM; IC50 (Homo sapiens [4]): > 10000 nM
N#Cc1ccc(C(=O)Cn2c(=O)n(Cc3ccccc3)c3ccccc32)cc1	Not Active		
O=C(Cn1c(=O)n(Cc2ccccc2)c2ccccc21)c1ccc(O)c(O)c1	Not Active		
